# Target: T1, Rhesus PDE2A3 (Macaca mulatta, UniProt B3VTJ2)
# T1 construct: made in house; host or cells: AD293 cells, transient transfection; supernatant of sonicated lysate
# T1 sequence (B3VTJ2 1-941): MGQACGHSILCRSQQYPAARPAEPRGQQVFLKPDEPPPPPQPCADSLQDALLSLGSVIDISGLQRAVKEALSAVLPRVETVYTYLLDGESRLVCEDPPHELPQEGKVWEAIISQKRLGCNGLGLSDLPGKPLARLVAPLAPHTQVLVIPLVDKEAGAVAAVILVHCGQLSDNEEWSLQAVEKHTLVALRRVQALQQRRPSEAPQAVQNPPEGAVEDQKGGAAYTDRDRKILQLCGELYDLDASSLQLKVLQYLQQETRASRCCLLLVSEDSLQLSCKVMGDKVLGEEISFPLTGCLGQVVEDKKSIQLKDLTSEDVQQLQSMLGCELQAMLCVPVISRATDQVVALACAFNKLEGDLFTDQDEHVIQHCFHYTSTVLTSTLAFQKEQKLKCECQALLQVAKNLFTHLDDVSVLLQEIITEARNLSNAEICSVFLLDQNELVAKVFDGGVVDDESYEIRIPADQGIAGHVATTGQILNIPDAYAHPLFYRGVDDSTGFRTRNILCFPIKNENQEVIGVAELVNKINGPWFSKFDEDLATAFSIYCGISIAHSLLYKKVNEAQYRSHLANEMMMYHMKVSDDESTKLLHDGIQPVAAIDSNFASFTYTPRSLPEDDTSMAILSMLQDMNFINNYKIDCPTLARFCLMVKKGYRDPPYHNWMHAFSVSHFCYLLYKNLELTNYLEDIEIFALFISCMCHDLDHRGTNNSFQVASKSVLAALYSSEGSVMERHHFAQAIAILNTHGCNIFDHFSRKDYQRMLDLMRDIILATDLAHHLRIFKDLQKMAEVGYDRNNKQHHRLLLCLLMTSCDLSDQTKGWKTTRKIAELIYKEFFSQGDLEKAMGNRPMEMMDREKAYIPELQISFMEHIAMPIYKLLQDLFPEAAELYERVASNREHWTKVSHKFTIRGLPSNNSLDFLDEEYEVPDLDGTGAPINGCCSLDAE
# Assay: PDE2 fluorescence polarization (IMAP FP) inhibition assay, rhesus PDE2A3
# Type: biochemical, rhesus macaque
# Conditions: Lab A; read-out: Rhesus PDE2 Ki (nM) Lab A
# Procedure: The activity of the compounds in accordance with the present invention as PDE2 inhibitors may be readily determined using a fluorescence polarization (FP) methodology (Huang, W., et al., J. Biomol Screen, 2002, 7: 215).
# The PDE2 inhibitory activity of the compounds of the present invention was determined in accordance with the following experimental method. Rhesus PDE2A3 was amplified from rhesus macaque brain cDNA (Biochain Institute, Hayward, Calif.) using primers based on human PDE2A sequence (accession NM_002599.3) where the forward primer containing a Kozak consensus was 5′-[…]-3′ and the reverse primer was 5′-[…]-3′. Amplification with Easy-A High-Fidelity PCR cloning enzyme (Stratagene, La Jolla, Calif.) was 95° C. for 2 minutes followed by thirty three cycles of 95° C. for 40 seconds, 52° C. for 30 seconds, and 72° C. for 2 minutes 48 seconds. Final extension was 72° C. for 7 minutes. The PCR product was TA cloned into pcDNA3.3-TOPO (Invitrogen, Carlsbad, Calif.) according to standard protocol. A consensus sequence was developed from multiple clones and then deposited into GenBank (EU812167). AD293 cells (Stratagene, La Jolla, Calif.) with 70-80% confluency were transiently transfected with rhesus PDE2A3/pcDNA3.3-TOPO using Lipofectamine 2000 according to manufacturer specifications (Invitrogen, Carlsbad, Calif.). Cells were harvested 48 hours post-transfection and lysed by sonication (setting 3, 10×5 sec pulses) in a buffer containing 20 mM HEPES pH 7.4, 1 mM EDTA and Complete Protease Inhibitor Cocktail Tablets (Roche, Indianapolis, Ind.). Lysate was collected by centrifugation at 75,000×g for 20 minutes at 4° C. and supernatant utilized for evaluation of PDE2 activity. The fluorescence polarization assay for cyclic nucleotide phosphodiesterases was performed using an IMAP® FP kit supplied by Molecular Devices, Sunnyvale, Calif. (product #R8139). […] Assays were performed at room temperature in 384-well microtiter plates with an incubation volume of 20.2 μL. Solutions of test compounds were prepared in DMSO and serially diluted with DMSO to yield 8 μL of each of 10 solutions differing by 3-fold in concentration, at 32 serial dilutions per plate. […] 0% of inhibition is determined by using DMSO (1% final concentrations).
# A Labcyte Echo 555 (Labcyte, Sunnyvale, Calif.) is used to dispense 200 nL from each well of the titration plate to the 384 well assay plate. Ten microliters of a solution of enzyme (1/2000 final dilution from aliquots; sufficient to produce 20% substrate conversion) was added to the assay plate. Next 10 uL of a separate solution of the substrate FAM-labeled cAMP (50 nM final concentration product # R7506 from Molecular Devices) and the activator cGMP (1 uM final concentration), prepared in the assay buffer (10 mM Tris HCl, pH 7.2, 10 mM MgCl2, 0.05% NaN3 0.01% Tween-20, and 1 mM DTT) was added to the assay plate and shaken to mix. The reaction is allowed to proceed at room temperature for 60 minutes. A binding solution is then made from the kit components, comprised of 80% Solution A, 20% Solution B and binding reagent at a volume of 1/600 the total binding solution. The enzymatic reaction is stopped by addition of 60 μL of the binding solution to each well of the assay plates and the plates are sealed and shaken for 30 seconds. The plate was incubated at room temperature for at least one hour prior to determining the fluorescence polarization (FP). The parallel and perpendicular fluorescence of each well of the plate was measured using a Tecan Genios Pro plate reader (Tecan, Switzerland) or Perkin Elmer EnVision™ plate reader (Waltham, Mass.). Fluorescence polarization (mP) was calculated from the parallel (S) and perpendicular (P) fluorescence of each sample well and the analogous values for the median control well, containing only substrate (So and Po), using the following equation: Polarization(mP)=1000*(S/So−P/Po)/(S/So+P/Po).
row,SMILES,Ki
1,"Cc1nn(C(C)c2ccc(C(F)(F)F)cc2)c2nc(C(C)O)[nH]c(=O)c12 (stereo not shown) [Example 29, 6-(1-Hydroxyethyl)-3-methyl-1-(1-(4-(trifluoromethyl)phenyl)ethyl)-1H-pyrazolo[3,4-d]pyrimidin-4(5H)-one]",583 nM
2,"Cc1nn(C(C)c2ccc(C(F)(F)F)cc2)c2nc(C3CCOC3)[nH]c(=O)c12 (stereo not shown) [Example 33, 3-Methyl-6-(tetrahydrofuran-3-yl)-1-(1-(4-(trifluoromethyl)phenyl)ethyl)-1H-pyrazolo[3,4-d]pyrimidin-4(5H)-one]",386 nM
3,"COCCc1nc2c(c(C)nn2C(C)c2ccc(C(F)(F)F)cc2)c(=O)[nH]1 (stereo not shown) [Example 34, 6-(2-Methoxyethyl)-3-methyl-1-(1-(4-(trifluoromethyl)phenyl)ethyl)-1H-pyrazolo[3,4-d]pyrimidin-4(5H)-one]",267 nM

# Next, values leading:
row,Ki,SMILES
1,275 nM,"Cc1nn(C(C)c2ccc(C(F)(F)F)cc2)c2nc(CCC(=O)N(C)C)[nH]c(=O)c12 (stereo not shown) [Example 32, N,N-Dimethyl-3-(3-methyl-4-oxo-1-(1-(4-(trifluoromethyl)phenyl)ethyl)-4,5-dihydro-1H-pyrazolo[3,4-d]pyrimidin-6-yl)propanamide]"
2,421 nM,"Cc1nn(C(C)c2ccc(C(F)(F)F)cc2)c2nc(C3CCOCC3)[nH]c(=O)c12 (stereo not shown) [Example 55, 3-Methyl-6-(tetrahydro-2H-pyran-4-yl)-1-{1-[4-(trifluoromethyl)phenyl]ethyl}-1,5-dihydro-4H-pyrazolo[3,4-d]pyrimidin-4-one]"

# Same assay, conditions: Lab B; read-out: Rhesus PDE2 Ki (nM) Lab B
row,SMILES,Ki
1,"Cc1nc2c(c(CO)nn2C(c2ccc(C(F)(F)F)c(F)c2)C(C)C)c(=O)[nH]1 (single isomer, unassigned) [Example 86, (R)- or (S)-1-(1-(3-Fluoro-4-(trifluoromethyl)phenyl)-2-methylpropyl)-3-(hydroxymethyl)-6-methyl-1H-pyrazolo[3,4-d]pyrimidin-4(5H)-one]",436 nM
2,"Cc1nc2c(c(CO)nn2C(c2ccc(C(F)(F)F)c(F)c2)C(C)(C)C)c(=O)[nH]1 (single isomer, unassigned) [Example 128, (R)- or (S)-1-(1-(3-Fluoro-4-(trifluoromethyl)phenyl)-2,2-dimethylpropyl)-3-(hydroxyl-methyl)-6-methyl-1H-pyrazolo-[3,4-d]pyrimidin-4(5H)-one]",413 nM
3,"COc1ccc(Cc2nc3c(c(CF)nn3C(C)c3ccc(C(F)(F)F)cc3)c(=O)[nH]2)cc1 (single isomer, unassigned) [Example 218, (R)- or (S)-3-(Fluoromethyl)-6-(4-methoxybenzyl)-1-(1-(4-(trifluoromethyl)phenyl)ethyl)-1H-pyrazolo[3,4-d]pyrimidin-4(5H)-one]",107 nM
4,"COc1cccc(Cc2nc3c(c(CF)nn3C(C)c3ccc(C(F)(F)F)cc3)c(=O)[nH]2)c1 (single isomer, unassigned) [Example 220, (R)- or (S)-3-(Fluoromethyl)-6-(3-methoxybenzyl)-1-(1-(4-(trifluoromethyl)phenyl)ethyl)-1H-pyrazolo[3,4-d]pyrimidin-4(5H)-one]",189 nM
5,"Cc1nc2c(c(CCO)nn2C(C)c2ccc(C(F)(F)F)cc2)c(=O)[nH]1 (single isomer, unassigned) [Example 249]",245 nM
6,"Cc1nc2c(c(CN)nn2C(C)c2ccc(C(F)(F)F)cc2)c(=O)[nH]1 (single isomer, unassigned) [Example 274]",~14500 nM
7,"COCc1nc2c(c(CO)nn2C(C)c2ccc(C(F)(F)F)cc2)c(=O)[nH]1 (single isomer, unassigned) [Example 292]",473 nM
8,"Cc1nn(C(C)c2ccc(C(F)(F)F)cc2)c2nc(C3CCOC3)[nH]c(=O)c12 (stereo not shown) [Example 33, 3-Methyl-6-(tetrahydrofuran-3-yl)-1-(1-(4-(trifluoromethyl)phenyl)ethyl)-1H-pyrazolo[3,4-d]pyrimidin-4(5H)-one]",531 nM
9,"CC(c1ccc(C(F)(F)F)cc1)n1nc(COCc2ccccc2)c2c(=O)[nH]c(C(F)F)nc21 (stereo not shown) [Example 283, 3-((Benzyloxy)methyl)-6-(difluoromethyl)-1-(1-(4-(trifluoromethyl)phenyl)ethyl)-1H-pyrazolo[3,4-d]pyrimidin-4(5H)-one]",387 nM

# Now from value to molecule:
row,Ki,SMILES
1,419 nM,"Cc1nc2c(c(C(F)F)nn2C(C)c2ccc(C(F)(F)F)cc2)c(=O)[nH]1 (single isomer, unassigned) [Example 175]"
2,210 nM,"Cc1nc2c(c(CF)nn2C(C)c2ccc(S(F)(F)(F)(F)F)cc2)c(=O)[nH]1 (single isomer, unassigned) [Example 199]"
3,149 nM,"Cc1nc2c(c(CF)nn2C(c2ccc(C(F)(F)F)cc2)C2(C)CC2)c(=O)[nH]1 (single isomer, unassigned) [Example 208, (R)- or (S)-3-(Fluoromethyl)-6-methyl-1-((1-methylcyclopropyl)(4-(trifluoromethyl)phenyl)methyl)-1H-pyrazolo[3,4-d]pyrimidin-4(5H)-one]"
4,678 nM,"Cc1nc2c(c(CF)nn2C(c2ccc(C(F)(F)F)cc2)C(C)(C)C)c(=O)[nH]1 (single isomer, unassigned) [Example 233, (R)- or (S)-1-(2,2-Dimethyl-1-(4-(trifluoromethyl)phenyl)propyl)-3-(fluoromethyl)-6-methyl-1H-pyrazolo[3,4-d]pyrimidin-4(5H)-one]"
5,703 nM,"Cc1nc2c(c(C#N)nn2C(C)c2ccc(C(F)(F)F)cc2)c(=O)[nH]1 (single isomer, unassigned) [Example 253]"
6,1210 nM,"Cc1nc2c(c(CS(C)(=O)=O)nn2C(C)c2ccc(C(F)(F)F)cc2)c(=O)[nH]1 (single isomer, unassigned) [Example 272]"
7,757 nM,"Cc1nc2c(c(CS(C)(=O)=O)nn2C(C)c2ccc(C(F)(F)F)cc2)c(=O)[nH]1 (single isomer, unassigned) [Example 273]"
8,987 nM,"Cc1nc2c(c(CN)nn2C(C)c2ccc(C(F)(F)F)cc2)c(=O)[nH]1 (single isomer, unassigned) [Example 275]"
9,768 nM,"COCc1nn(C(C)c2ccc(C(F)(F)F)cc2)c2nc(C)[nH]c(=O)c12 (single isomer, unassigned) [Example 278]"
10,416 nM,"Cc1nn(C(C)c2ccc(C(F)(F)F)cc2)c2nc(CCC(=O)N(C)C)[nH]c(=O)c12 (stereo not shown) [Example 32, N,N-Dimethyl-3-(3-methyl-4-oxo-1-(1-(4-(trifluoromethyl)phenyl)ethyl)-4,5-dihydro-1H-pyrazolo[3,4-d]pyrimidin-6-yl)propanamide]"
11,> 2970 nM,"Cc1nc2c(c(CCN)nn2C(C)c2ccc(C(F)(F)F)cc2)c(=O)[nH]1 (stereo not shown) [Example 282, 3-(2-Aminoethyl)-6-methyl-1-(1-(4-(trifluoromethyl)phenyl)ethyl)-1H-pyrazolo[3,4-d]pyrimidin-4(5H)-one]"
